Measurements: patent publication US8183263B2 (priority 2007, dated 2012)

What follows are compounds tested on HCV replicon (assay: HCV replicon replication assay (NPT level by captured ELISA)). Conditions: Hepatitis C virus, 72 h; Huh-7 HCV replicon-containing cells, three days incubation; read-out: Activity (inhibition of HCV replicon replication).
Format: cell-based
How it was run: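 Huh-7 cells carrying HCV subgenomic replicon (NS3–NS5B, neo reporter) treated 3 days at 37 °C with 6 concentrations from 10 to 0.03 micromolar in G418-free medium, equal DMSO across wells. Replication measured on day four as NPTII level by in-cell captured ELISA on fixed cells; interferon alpha as positive control.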

Question: With Fc1sc(Nc2ccc(Oc3ccc(Cl)cc3)c(C(F)(F)F)c2)nc1-c1cccnc1 [Cmp 97, N-(4-(4-chlorophenoxy)-3-(trifluoromethyl)phenyl)-5-fluoro-4-(pyridin-3-yl)thiazol-2-amine] as the compound, how does the EC50 read?
Answer: < 1 µM

Question: For Fc1sc(Nc2ccc(OCCC#CC3CCCC3)c(C(F)(F)F)c2)nc1-c1cccnc1 [Cmp 191, N-(4-(4-cyclopentylbut-3-ynyloxy)-3-(trifluoromethyl)phenyl)-5-fluoro-4-(pyridin-3-yl)thiazol-2-amine], which EC50 is on record?
Answer: < 1 µM

Question: For CCCCCCCCOc1ccc(Nc2ncc(-c3cccnc3)s2)cc1C(F)(F)F [Cmp 164, N-(4-(octyloxy)-3-(trifluoromethyl)phenyl)-5-(pyridin-3-yl)thiazol-2-amine], which EC50 is on record?
Answer: < 1 µM

Question: CC(F)(F)c1cc(Nc2nc(-c3cccnc3)c(F)s2)ccc1Oc1ccccc1 [Cmp 82, N-(3-(1,1-difluoroethyl)-4-phenoxyphenyl)-5-fluoro-4-(pyridin-3-yl)thiazol-2-amine] was tested. Which EC50 did it give?
Answer: < 1 µM

Question: For FC(F)(F)c1cc(Nc2nc(-c3cccnc3)cs2)ccc1CCCCOc1ccccc1 [Cmp 132], which EC50 is on record?
Answer: < 1 µM

Question: How did the EC50 turn out when CCCCCCCCOc1ccc(Nc2nc(-c3cnccn3)c(Cl)s2)cc1C(F)(F)F [Cmp 162, 5-chloro-N-(4-(octyloxy)-3-(trifluoromethyl)phenyl)-4-(pyrazin-2-yl)thiazol-2-amine] was run?
Answer: < 1 µM

Question: For COc1ncc(-c2csc(Nc3ccc(C)c(OCC4CCCCC4)c3)n2)cn1 [Cmp 43, N-(3-(cyclohexylmethoxy)-4-methylphenyl)-4-(2-methoxypyrimidin-5-yl)thiazol-2-amine], which EC50 is on record?
Answer: < 1 µM

Question: Which EC50 does the source give for CCCCCCCCN(C)c1ccc(Nc2nc(-c3cccnc3)c(Cl)s2)cc1C(F)(F)F [Cmp 158, N^4-(5-chloro-4-(pyridin-3-yl)thiazol-2-yl)-N^1-methyl-N^1-octyl-2-(trifluoromethyl)benzene-1,4-diamine] here?
Answer: < 1 µM

Question: With CCCCCCCCc1ccc(Nc2nc(-c3ccc(F)nc3)c(F)s2)cc1C(F)(F)F [Cmp 174, 5-fluoro-4-(6-fluoropyridin-3-yl)-N-(4-octyl-3-(trifluoromethyl)phenyl)thiazol-2-amine] as the compound, how does the EC50 read?
Answer: < 1 µM

Question: Fc1sc(Nc2ccc(Oc3ccccc3)c(C(F)(F)F)c2)nc1-c1cccnc1 [Cmp 70, 5-fluoro-N-(4-phenoxy-3-(trifluoromethyl)phenyl)-4-(pyridin-3-yl)thiazol-2-amine] was tested. Which EC50 did it give?
Answer: < 1 µM

Question: With CCCCCCCCc1cc2cc(Nc3nc(-c4cncc(C#N)c4)cs3)ccc2o1 [Cmp 203, 5-(2-(2-octylbenzofuran-5-ylamino)thiazol-4-yl)nicotinonitrile] as the compound, how does the EC50 read?
Answer: < 1 µM

Question: How did the EC50 turn out when FC(F)(F)c1cc(Nc2nc(-c3cccnc3)cs2)ccc1Oc1ccc(Cl)cc1 [Cmp 50, N-(4-(4-chlorophenoxy)-3-(trifluoromethyl)phenyl)-4-(pyridin-3-yl)thiazol-2-amine] was run?
Answer: < 1 µM

Question: Which EC50 does the source give for CCCCCCCC(=O)c1ccc(Nc2nc(-c3cccnc3)cs2)cc1 [Cmp 111, 1-(4-(4-(pyridin-3-yl)thiazol-2-ylamino)phenyl)octan-1-one] here?
Answer: < 1 µM

Question: CCCCCCCCOc1ccc(Nc2nc(-c3ccc4nncn4c3)cs2)cc1C(F)(F)F [Cmp 177, 4-([1,2,4]triazolo[4,3-a]pyridin-6-yl)-N-(4-(octyloxy)-3-(trifluoromethyl)phenyl)thiazol-2-amine] was tested. Which EC50 did it give?
Answer: < 1 µM

Question: How did the EC50 turn out when CCCCCCCCc1cc2cc(Nc3nc(-c4cccnc4)c(F)s3)ccc2o1 [Cmp 128, 5-fluoro-N-(2-octylbenzofuran-5-yl)-4-(pyridin-3-yl)thiazol-2-amine] was run?
Answer: < 1 µM

Question: Which EC50 does the source give for Cc1ccc(OCCCCc2ccc(Nc3nc(-c4cccnc4)cs3)cc2C(F)(F)F)cc1 [Cmp 117, 4-(pyridin-3-yl)-N-(4-(4-(p-tolyloxy)butyl)-3-(trifluoromethyl)phenyl)thiazol-2-amine] here?
Answer: < 1 µM

Question: With CCCOCCCCCc1ccc(Nc2nc(-c3cccnc3)c(F)s2)cc1C(F)(F)F [Cmp 192, 5-fluoro-N-(4-(5-propoxypentyl)-3-(trifluoromethyl)phenyl)-4-(pyridin-3-yl)thiazol-2-amine] as the compound, how does the EC50 read?
Answer: < 1 µM

Question: Which EC50 does the source give for CCCCCCc1ccc(Nc2nc(-c3cnc(OC)nc3)cs2)cc1C(F)(F)F [Cmp 113, N-(4-hexyl-3-(trifluoromethyl)phenyl)-4-(2-methoxypyrimidin-5-yl)thiazol-2-amine] here?
Answer: < 1 µM

Question: Which EC50 does the source give for CCCCCCCCOc1ccc(Nc2nc(-c3ccc(O)c(C(N)=O)c3)c(Cl)s2)cc1C(F)(F)F [Cmp 186, 5-(5-chloro-2-(4-(octyloxy)-3-(trifluoromethyl)phenylamino)thiazol-4-yl)-2-hydroxybenzamide] here?
Answer: < 1 µM

Question: With Fc1sc(Nc2ccc(C(F)(F)F)c(Oc3ccccc3)c2)nc1-c1cccnc1 [Cmp 108, 5-fluoro-N-(3-phenoxy-4-(trifluoromethyl)phenyl)-4-(pyridin-3-yl)thiazol-2-amine] as the compound, how does the EC50 read?
Answer: < 1 µM

Question: For CCCCCCCCOc1ccc(Nc2nc(-c3ccncc3)c(F)s2)cc1C(F)(F)F [Cmp 166, 5-fluoro-N-(4-(octyloxy)-3-(trifluoromethyl)phenyl)-4-(pyridin-4-yl)thiazol-2-amine], which EC50 is on record?
Answer: < 1 µM

Question: How did the EC50 turn out when Cc1ccc(Nc2nc(-c3ccc(F)cc3)c(F)s2)cc1OCCOc1ccccc1 [Cmp 60, 5-fluoro-4-(4-fluorophenyl)-N-(4-methyl-3-(2-phenoxyethoxy)phenyl)thiazol-2-amine] was run?
Answer: < 1 µM

Question: With CC/C=N/N(c1ccc(OCCCCCCCC)cc1)c1nc(-c2cccnc2)cs1 [Cmp 32, (E)-2-(1-(4-(octyloxy)phenyl)-2-propylidenehydrazinyl)-4-(pyridin-3-yl)thiazole] as the compound, how does the EC50 read?
Answer: < 1 µM

Question: How did the EC50 turn out when CCCCCCCCc1ccc(Nc2nc(-c3ccncc3)c(F)s2)cc1C(F)(F)F [Cmp 167, 5-fluoro-N-(4-octyl-3-(trifluoromethyl)phenyl)-4-(pyridin-4-yl)thiazol-2-amine] was run?
Answer: < 1 µM

Question: Which EC50 does the source give for CCCCCCCCOc1ccc(Nc2nc(-c3cccnc3)cs2)cc1C(=O)O [Cmp 155, 2-(octyloxy)-5-(4-(pyridin-3-yl)thiazol-2-ylamino)benzoic acid] here?
Answer: > 10 µM

Question: Which EC50 does the source give for CCCCCCCCOc1c(F)cc(Nc2nc(-c3cccnc3)cs2)cc1F [Cmp 110, N-(3,5-difluoro-4-(octyloxy)phenyl)-4-(pyridin-3-yl)thiazol-2-amine] here?
Answer: < 1 µM

Question: With COc1ncc(-c2csc(Nc3ccc(Oc4ccc(C#N)cc4)c(C(F)(F)F)c3)n2)cn1 [Cmp 52, 4-(4-(4-(2-methoxypyrimidin-5-yl)thiazol-2-ylamino)-2-(trifluoromethyl)phenoxy)benzonitrile] as the compound, how does the EC50 read?
Answer: < 1 µM

Question: For Cc1ccc(CCCCOc2cc(Nc3nc(-c4cccnc4)c(F)s3)ccc2C(F)(F)F)cc1 [Cmp 126], which EC50 is on record?
Answer: < 1 µM

Question: CCCCCCCCOc1cc(Nc2nc(-c3cnc(OC)nc3)cs2)ccc1C [Cmp 46, 4-(2-methoxypyrimidin-5-yl)-N-(4-methyl-3-(octyloxy)phenyl)thiazol-2-amine] was tested. Which EC50 did it give?
Answer: < 1 µM

Question: Which EC50 does the source give for CCCCOCCCCc1ccc(Nc2nc(-c3cccnc3)c(F)s2)cc1C(F)(F)F [Cmp 234, N-(4-(4-butoxybutyl)-3-(trifluoromethyl)phenyl)-5-fluoro-4-(pyridin-3-yl)thiazol-2-amine] here?
Answer: < 1 µM

Question: With CCCCCCCCOc1c(F)cc(Nc2nc(-c3cccnc3)c(F)s2)cc1F [Cmp 119, N-(3,5-difluoro-4-(octyloxy)phenyl)-5-fluoro-4-(pyridin-3-yl)thiazol-2-amine] as the compound, how does the EC50 read?
Answer: < 1 µM

Question: For CC(C)(C)c1cc2cc(Nc3nc(-c4cccnc4)cs3)ccc2o1 [Cmp 150, N-(2-tert-butylbenzofuran-5-yl)-4-(pyridin-3-yl)thiazol-2-amine], which EC50 is on record?
Answer: < 1 µM

Question: CCCCCOc1cc(Nc2nc(-c3ccc(F)cc3)cs2)ccc1C(F)(F)F [Cmp 76, 4-(4-fluorophenyl)-N-(3-(pentyloxy)-4-(trifluoromethyl)phenyl)thiazol-2-amine] was tested. Which EC50 did it give?
Answer: < 1 µM

Question: For CCCCCCCCc1ccc(Nc2nc(-c3ccccc3)c(CC(=O)O)s2)cc1C(F)(F)F [Cmp 219, 2-(2-(4-octyl-3-(trifluoromethyl)phenylamino)-4-phenylthiazol-5-yl)acetic acid], which EC50 is on record?
Answer: 1 to 10 µM

Question: CCCCCCCCOc1ccc(N(N)c2nc(-c3cccnc3)cs2)cc1C(F)(F)F [Cmp 44, 2-(1-(4-(octyloxy)-3-(trifluoromethyl)phenyl)hydrazinyl)-4-(pyridin-3-yl)thiazolo] was tested. Which EC50 did it give?
Answer: < 1 µM

Question: For CCCCCCCCc1cc2cc(Nc3nc(-c4ccc5nncn5c4)cs3)ccc2o1 [Cmp 179, 4-([1,2,4]triazolo[4,3-a]pyridin-6-yl)-N-(2-octylbenzofuran-5-yl)thiazol-2-amine], which EC50 is on record?
Answer: < 1 µM

Question: Which EC50 does the source give for CCCCCc1nc2cc(Nc3nc(-c4cnc(OC)nc4)cs3)ccc2o1 [Cmp 55, N-(4-(2-methoxypyrimidin-5-yl)thiazol-2-yl)-2-pentylbenzo[d]oxazol-5-amine] here?
Answer: < 1 µM

Question: For CCCCCOc1cc(Nc2nc(-c3cccnc3)cs2)ccc1C#N [Cmp 27, 2-(pentyloxy)-4-(4-(pyridin-3-yl)thiazol-2-ylamino)benzonitrile], which EC50 is on record?
Answer: < 1 µM

Question: With CCCCCCCCOc1ccc(Nc2ncc(Sc3ccncc3)s2)cc1C(F)(F)F [Cmp 146, N-(4-(octyloxy)-3-(trifluoromethyl)phenyl)-5-(pyridin-4-ylthio)thiazol-2-amine] as the compound, how does the EC50 read?
Answer: 1 to 10 µM

Question: For CCc1ccc(Oc2ccc(Nc3nc(-c4cccnc4)c(F)s3)cc2C(C)=O)cc1 [Cmp 131, 1-(2-(4-ethylphenoxy)-5-(5-fluoro-4-(pyridin-3-yl)thiazol-2-ylamino)phenyl)ethanone], which EC50 is on record?
Answer: < 1 µM

Question: Which EC50 does the source give for CC/C=C\CCCCOc1ccc(Nc2nc(-c3cccnc3)c(F)s2)cc1C(F)(F)F [Cmp 165, (Z)-5-fluoro-N-(4-(oct-5-enyloxy)-3-(trifluoromethyl)phenyl)-4-(pyridin-3-yl)thiazol-2-amine] here?
Answer: < 1 µM

Question: How did the EC50 turn out when CCCCCCCCC1Cc2ccc(Nc3nc(-c4cccnc4)c(F)s3)cc2O1 (stereo not shown) [Cmp 129, 5-fluoro-N-(2-octyl-2,3-dihydrobenzofuran-6-yl)-4-(pyridin-3-yl)thiazol-2-amine] was run?
Answer: < 1 µM

Question: CCCCCCCc1nc2cc(Nc3nc(-c4cccnc4)c(F)s3)ccc2o1 [Cmp 93, N-(5-fluoro-4-(pyridin-3-yl)thiazol-2-yl)-2-heptylbenzo[d]oxazol-5-amine] was tested. Which EC50 did it give?
Answer: < 1 µM
